This note sets out measurements from patent publication US10647680B2, “Urea compound, preparation method therefor and medical use thereof” (Ancureall Pharmaceutical (Shanghai) Co., Ltd., priority 2016, dated 2020).

A value given as a limit tells only on which side of the number the result lay.

Assay [1] has as its system K562 (FLT3 negative expression, positive expression of BCR-ABL fusion protein). Put plainly: In vitro growth inhibition (GI50), K562. The class given is cell-based. The conditions noted are these: Homo sapiens, Cell lines of leukemia, read-out: GI 50 K562 BCR-ABL. The source says:
(§1) 1. Cell Lines and Cell Cultures
(§2) Tumor cell line is an effective cell model for studying the inhibition of tumor cell growth or proliferation in vitro. In the present invention, a representative tumor cell line was selected to determine the cell growth inhibition activity of the present compound. All cell lines used were from ATCC, DSMZ, and the Cell Bank of the Chinese Academy of Sciences. Cell culture conditions and methods were in accordance with the requirements of each cell line. Cells were subcultured in vitro for no more than 3 passages each time, and as required, single-clone purification and identification of cell lines could be carried out.
(§3) The cell culture media used were RPMI1640 (Gibco), MEM (Gibco), McCOY'S5A (Gibco), and IMDM (Gibco). The complete medium was prepared by supplement with 5˜20% fetal calf serum (Gibco), 1% double-antibiotics (10000 units/mL penicillin and 10000 units/mL), 2 mM glutamine or 1 mM sodium pyruvate, respectively.
(§4) The human acute […] monomonocyte leukemia cell line MV4-11 (FLT3 ITD+/+ mutant type, ATCC) was cultured in a complete medium comprising 1×IMDM and 10% FBS. Human acute myeloid leukemia cell line MOLM-13 (FLT3 ITD+/− mutant type, DSMZ), human acute lymphoblastic leukemia cell line RS4; 11 (FLT3 wild type, ATCC), human chronic granulocytic leukemia cell line K562 (FLT3 negative expression, positive expression of BCR-ABL fusion protein, ATCC), human promyelocytic leukemia cell line HL-60 (FLT3 wild type, ATCC), human B lymphoblastic leukemia cell line RAMOS (positive expression of Brutons tyrosine protein kinase, ATCC), human acute myeloid leukemia cell line Kasumi-1 (c-Kit N822K mutant type, ATCC), human acute monocytic leukemia cell line U937 (FLT3 wild-type, ATCC), human acute myeloid leukemia cell line OCI-AML3 (NPMc+ mutant type, ATCC), human acute myeloid leukemia cell line KG-1 (expressing FGFR1OP2-FGFR1 fusion protein, ATCC) were cultured in a complete medium comprising 1×RPMI1640 and 10% FBS, respectively.
(§5) The suspension cells were collected by centrifugation. The supernatant was discarded and the cell pellet was resuspended and counted. Different cell concentrations (5˜10×10^4 cells/mL) were prepared according to the growth cycle of each cell line and then seeded on a 96-well plate (Corning), 100 μL/well. The cells were incubated overnight at 37° C., 5% CO2. The compounds were added to the cells on the second day with 2 wells in parallel. The final concentration of organic solvent shall not exceed 1%. The cells were continually incubated for 3 to 5 days, and then subjected to MTT assay.
(§6) The compound was stored in a concentration of 10 mM at −20° C. and diluted to 2- or 10-fold series prior to use.
(§7) Dojindo CCK8 reagent kit was used as MTT assay. […] FC meter was used as microplate reader.
(§8) For adherent cells, culture medium was removed and immediately replaced with the fresh prepared medium which contains 10% CCK8 reagent (100 μL/well). For the suspension cells, CCK8 was directly added to 10% of the final concentration. The cells were continually incubated for 1˜4 h. […] The experiment was independently repeated 1˜3 times, and subject to biological statistical analysis. 4. Experimental Results
(§9) The initial concentration of the compound was 5,000 nM, then it was serially diluted by 2-fold or 10-fold to 0.01 nM. The GI50 value of each test compound was calculated according to the GI50 assay and calculation method. The experiments were repeated 1 to 3 times, and data were subjected to biological statistical analysis.

For assay [2], the system named is U937 (FLT3 wild-type). Kind of assay: In vitro growth inhibition (GI50), U937. The conditions noted are these: Homo sapiens, U-937; Cell lines of leukemia; read-out: GI 50 U937 FLT 3(WT). In kind it is cell-based.
From the text: as §1, §2, §3, §4, §5, §6, §7, §8, §9

The test system of assay [3] is Kasumi-1 (c-Kit N822K mutant type). Kind of assay: In vitro growth inhibition (GI50), Kasumi-1. The class given is cell-based. Conditions: Homo sapiens, Cell lines of leukemia, read-out: GI 50 Kasumi-1 Kit (N822K).
From the text: as §1, §2, §3, §4
as §5, with “Adherent cells were digested with 0.25% pancreatin-EDTA (Gibco). The suspension” for “The suspension”
(§10) The compound of the present invention and the control compound were dissolved in DMSO (Sigma) respectively, with the purity of more than 98%. The compound was stored in a concentration of 10 mM at −20° C. and diluted to 2- or 10-fold series prior to use.
(§11) Dojindo CCK8 reagent kit was used as MTT assay. THERMO […] FC meter was used as microplate reader.
(§12) For adherent cells, culture medium was removed and immediately replaced with the fresh prepared medium which contains 10% CCK8 reagent (100 μL/well). For the suspension cells, CCK8 was directly added to 10% of the final concentration. The cells were continually incubated for 1˜4 h. When a dark yellow color could be observed in the solvent control wells, the absorbance value at OD450 nm was measured and the cell growth rate was calculated according to the following formula: Cell Growth Rate (%)=100*(T−T0)/(C−T0) T=optical density of drug treatment cell well—optical density of blank control well; T0=optical density of cell well before drug treatment—optical density of blank control well; C=optical density of cell well of solvent control group—optical density of blank control well. The concentration value of 50% inhibition of cell growth (GI50) was calculated according to the drug concentration and cell growth rate curve. […]

Assay [4] relates to KG-1 (expressing FGFR1OP2-FGFR1 fusion protein). Put plainly: In vitro growth inhibition (GI50), KG-1. In kind it is cell-based. Conditions: Homo sapiens; Cell lines of leukemia; read-out: GI 50 KG-1 FGFR1OP 2-FGFR1.
From the text: as §1, §2, §3, §4, §5, §6, §7, §8, §9

Assay [5] concerns MOLM-13 (FLT3 ITD+/− mutant type). Put plainly: In vitro growth inhibition (GI50), MOLM-13. The conditions noted are these: Homo sapiens, MOLM-13; Cell lines of leukemia; read-out: GI 50 MOLM-13 FLT3 (ITD+/−). The class given is cell-based, human.
From the text: as §1, §2, §3, §4, §5, §6, §7, §8, §9

Assay [6] has as its system RS4; 11 (FLT3 wild type). Put plainly: In vitro growth inhibition (GI50), RS4; 11. The class given is cell-based, human. The conditions noted are these: Homo sapiens, RS4-11; Cell lines of leukemia; read-out: GI 50 RS4: 11 FLT3 (WT).
From the text: as §1, §2, §3, §4, §5, §6, §7, §8, §9

In assay [7] the test system is MV4-11 (FLT3 ITD+/+ mutant type). Kind of assay: In vitro growth inhibition (GI50), MV4-11. The conditions noted are these: Homo sapiens, MV4-11; Cell lines of leukemia; read-out: GI 50 MV4-11 FLT3 (ITD +/+). In kind it is cell-based, human.
From the text: as §1, §2, §3, §4, §5, §6, §7, §8, §9

Assay [8] relates to HL-60 (FLT3 wild type). Put plainly: In vitro growth inhibition (GI50), HL-60. The class given is cell-based. The conditions noted are these: Homo sapiens, Cell lines of leukemia, read-out: GI 50 HL60 FLT3 (WT).
From the text: as §1, §2, §3, §4
as §5, with “Adherent cells were digested with 0.25% pancreatin-EDTA (Gibco). The suspension” for “The suspension”
as §10, §11, §12

Assay [9] relates to RAMOS (positive expression of Brutons tyrosine protein kinase). Kind of assay: In vitro growth inhibition (GI50), RAMOS. The class given is cell-based. The conditions noted are these: Homo sapiens, Cell lines of leukemia, read-out: GI 50 Ramos BTK.
From the text: as §1, §2, §3, §4, §5, §6, §7, §8, §9

Assay [10] has as its system OCI-AML3 (NPMc+ mutant type). Put plainly: In vitro growth inhibition (GI50), OCI-AML3. Conditions: Homo sapiens, OCI-AML-3; Cell lines of leukemia; read-out: GI 50 OCI- AML3 NPMc+. The class given is cell-based.
From the text: as §1, §2, §3, §4, §5, §6, §7, §8, §9

In the case of `CC(C)(C)c1cc(NC(=O)Nc2ccc(-n3cnc4cc(OCCN5CCCCCC5)ccc43)cc2)no1` [Compound 18, 1-{4-[5-(2-azepan-1-yl-ethoxyl)-benzimidazol-1-yl]-phenyl}3-(5-tert-butyl-isoxazole-3-yl)-urea], the GI50 in assay [1] was over 1 µM; in assay [2], over 1 µM; in [3] it was 0.1 to 1 µM; in assay [4], 0.1 to 1 µM; in assay [5] it was 0.001 to 0.01 µM; in assay [6], over 1 µM. Further, the GI50 in assay [7] is 0.001 to 0.01 µM; in assay [8] it was 0.1 to 1 µM; in assay [9] it was 0.1 to 1 µM; in assay [10] it was over 1 µM.
In the case of `CN1CCN(CCCOc2ccc3c(c2)ncn3-c2ccc(NC(=O)Nc3cc(C(C)(C)C)on3)cc2)CC1` [Compound 19, 1-(5-tert-butyl-isoxazol-3-yl)-3-(4-{5-[3-(4-methyl-piperazin-1-yl)-propoxyl]-benzimidazol-1-yl}-phenyl)-urea], the GI50 in [1] was 0.1 to 1 µM; in assay [2] it was over 1 µM; in [3], 0.1 to 1 µM; in assay [4] it was 0.1 to 1 µM; in assay [5], 0.0001 to 0.001 µM; in [6] it was 0.01 to 0.1 µM. The GI50 in assay [7] was 0.0001 to 0.001 µM; in [8], 0.1 to 1 µM; in assay [9] it was 0.1 to 1 µM; in assay [10], over 1 µM.
In the case of `CN(C)CCOc1ccc2c(c1)ncn2-c1ccc(NC(=O)Nc2cc(C(C)(C)C)on2)cc1` [Compound 20, 1-(5-tert-butyl-isoxazol-3-yl)-3-{4-[5-(2-dimethylamino-ethoxyl)-benzimidazol-1-yl]-phenyl}-urea], the GI50 is over 1 µM in assay [1]; over 1 µM in [2]; over 1 µM in assay [3]; over 1 µM in assay [4]; 0.0001 to 0.001 µM in assay [5]; over 1 µM in assay [6]. Moreover, the GI50 in [7] was 0.0001 to 0.001 µM; in assay [8] it was over 1 µM; in [9] it was over 1 µM; in assay [10] it was over 1 µM.
Take `CC(C)(C)c1cc(NC(=O)Nc2ccc(-n3cnc4cc(OC(F)(F)F)ccc43)cc2)no1` [Compound 21, 1-(5-tert-butyl-isoxazol-3-yl)-3-[4-(5-trifluoromethoxy-benzimidazol-1-yl)-phenyl]-urea]: the GI50 is over 1 µM in assay [1]; over 1 µM in assay [2]; over 1 µM in assay [3]; over 1 µM in [4]; 0.0001 to 0.001 µM in assay [5]; over 1 µM in [6]. The GI50 in assay [7] was 0.0001 to 0.001 µM; in assay [8], over 1 µM; in assay [9], over 1 µM; in [10], over 1 µM.
Consider `CC(C)(C)c1cc(NC(=O)Nc2ccc(-n3cnc4cc(F)ccc43)cc2)no1` [Compound 22, 1-(5-tert-butyl-isoxazol-3-yl)-3-[4-(5-fluoro-benzimidazol-1-yl)-phenyl]-urea], for which the GI50 is over 1 µM in [1]; over 1 µM in [2]; over 1 µM in [3]; over 1 µM in assay [4]; 0.0001 to 0.001 µM in assay [5]; over 1 µM in assay [6]. The GI50 in assay [7] was 0.0001 to 0.001 µM; in [8], over 1 µM; in assay [9] it was over 1 µM; in [10] it was over 1 µM.
As to `CC(C)(C)c1cc(NC(=O)Nc2ccc(-n3cnc4cc(C(F)(F)F)ccc43)cc2)no1` [Compound 23, 1-(5-tert-butyl-isoxazol-3-yl)-3-[4-(5-trifluoromethyl-benzimidazol-1-yl)-phenyl]-urea], the GI50 in assay [1] was 0.1 to 1 µM; in [2], over 1 µM; in assay [3], over 1 µM; in assay [4] it was over 1 µM; in [5], 0.001 to 0.01 µM; in [6], 0.1 to 1 µM. Further, the GI50 in assay [7] was 0.001 to 0.01 µM; in assay [8], over 1 µM; in [9], over 1 µM; in assay [10], over 1 µM.
In the case of `Cc1ccc2c(c1)ncn2-c1ccc(NC(=O)Nc2cc(C(C)(C)C)on2)cc1` [Compound 24, 1-(5-tert-butyl-isoxazol-3-yl)-3-[4-(5-methyl-benzimidazol-1-yl)-phenyl]-urea], the GI50 in assay [1] was 0.1 to 1 µM; in [2], over 1 µM; in [3], over 1 µM; in [4], over 1 µM; in assay [5], 0.001 to 0.01 µM; in [6], 0.1 to 1 µM. Also, the GI50 is 0.001 to 0.01 µM in [7], over 1 µM in [8], over 1 µM in assay [9] and over 1 µM in assay [10].
Take `COc1ccc2ncn(-c3ccc(NC(=O)Nc4cc(C(C)(C)C)on4)cc3)c2c1` [Compound 25, 1-(5-tert-butyl-isoxazol-3-yl)-3-[4-(6-methoxyl-benzimidazol-1-yl)-phenyl]-urea]: the GI50 in assay [1] is over 1 µM; in assay [2] it was over 1 µM; in assay [3] it was over 1 µM; in assay [4] it was over 1 µM; in assay [5], 0.0001 to 0.001 µM; in assay [6], over 1 µM. The GI50 in [7] is 0.0001 to 0.001 µM; in assay [8], over 1 µM; in assay [9] it was over 1 µM; in assay [10], over 1 µM.
